From article PMC4438233, “Antibacterial effects of Traditional Chinese Medicine monomers against Streptococcus pneumoniae via inhibiting pneumococcal histidine kinase (VicK)” (Frontiers in Microbiology, 2015)
“And” between values parts separate entries of the source, which are not always exact repeats. Identical values can stand only once. Like-named read-outs stand apart in the source and are kept apart here. Marks after values point to notes of the source that are not given here.

Columns and labels:
S. mitis = assay: MIC against S. mitis; format: cell-based; conditions: Streptococcus mitis
Procedure: (§1) Minimum inhibitory concentration (MIC) assays for the antibacterial activities of the compounds were performed according to the standard […] method of the Clinical and Laboratory Standards Institute of America. MIC testing of drug-resistant S. pneumoniae, drug-resistant S. aureus, streptococci and antimicrobial combination was also performed using the same method. Briefly, the drugs were serially diluted 2-fold into eight wells with C+Y medium, yielding final concentrations ranging from […]. Then 10^6 CFU bacteria were added to each well. Inoculated medium containing 1% DMSO served as a bacterial growth control, whereas uninoculated medium served as a sterility control. The plates were incubated at 37°C for 12–16 h. […] The experiment was repeated three times.

[1] = test system: clinical S. pneumoniae 19F (CMCC31693); assay: Mouse colonization model, serotype 19F; format: in vivo, BALB/c mice; conditions: for Mean log CFU at site of infection: 19F
Procedure: (§2) In colonization models, the mice were intranasally challenged by 20 μL of clinical drug-resistant strains (pneumococcal serotype 19F or 19A, 1.5 × 10^8 CFU). An hour later, the mice were intraperitoneally injected with 100 μL drugs (2 × MIC) alone or in combination with PEN (2 × MIC). These injections were continued thrice a day for 3 d. Nasal wash and lung tissues were obtained to analyze the bacteria load at 24, 48, and 72 h after drug infection. Then 100 μL aliquots of the samples diluted were plated on blood agar plates. The colonies were counted after incubation overnight at 37°C with 5% CO2.

[2] = test system: Penicillin-resistant S. pneumoniae strains; assay: Checkerboard test with penicillin against penicillin-resistant S. pneumoniae; format: cell-based, Streptococcus pneumoniae; conditions: Streptococcus pneumoniae, agent alone
Procedure: as §1
(§3) The antimicrobial effects of different combinations of two antimicrobial agents were assayed using the checkerboard test (Bajaksouzian et al., [1997]). Each experiment was repeated thrice. The in vitro interaction between the five drugs with PEN was quantified by the fractional inhibitory concentration (FIC). The FIC index (FICI) was calculated using the following formula:
(§4) (2) FIC=FICA+FICB=[A]/MICA+[B]/MICB
(§5) where [A] and [B] are the concentrations of drugs A and B, respectively; MICA and FICA are the MIC and FIC of drug A for the organism, respectively; and MICB, and FICB are the MIC and FIC of drug B for the organism, respectively. The FIC index obtained was interpreted as follows: =0.5, synergy; FIC > 2.0, antagonism (Gupta and Kohli, [2003]).

S. pneumoniae NCTC7466 [3] = assay: Mouse sepsis model, survival time; format: in vivo, BALB/c mice; conditions: i.p. infection 1 × 10^3 CFU; drug i.p. thrice a day for 3 d; untreated control 28.8 ± 1.25
Procedure: Female BALB/c mice (12–15 per group) aged 4–6 weeks were used to evaluate the antimicrobial effects of the compounds in vivo. In sepsis models, the mice were intraperitoneally infected with 100 μL S. pneumoniae NCTC7466 strain suspension (1 × 10^3 CFU). […] Two control groups were injected with 100 μL 1% DMSO (dissolved the drugs, negative control) or PEN (0.42 mg/kg/d, positive control) following the same injection route. The result was expressed as cumulative survival times following 7 d of observation.

pneumococcal strains = assay: MIC against clinical pneumococcal strains (penicillin susceptible, intermediate, resistant); format: cell-based, Streptococcus pneumoniae; conditions: for MIC50 / MIC90: Streptococcus pneumoniae
Procedure: as §1

S. aureus = assay: Checkerboard test with penicillin against S. aureus; format: cell-based, Staphylococcus aureus; conditions: for MIC: Staphylococcus aureus
Procedure: as §1, §3, §4, §5

[4] = test system: Methicillin resistant S. aureus; assay: MIC against methicillin resistant S. aureus; format: cell-based; conditions: Staphylococcus aureus
Procedure: as §1

S. pneumoniae = assay: Checkerboard test with erythromycin or tetracycline against S. pneumoniae; format: cell-based, Streptococcus pneumoniae
Procedure: The antimicrobial effects of different combinations of two antimicrobial agents were assayed using the checkerboard test (Bajaksouzian et al., [1997]). Each experiment was repeated thrice. […] The FIC index (FICI) was calculated using the following formula:
as §4, §5

[5] = test system: clinical S. pneumoniae 19A (CMCC31689); assay: Mouse colonization model, serotype 19A; format: in vivo, BALB/c mice; conditions: for Mean log CFU at site of infection: 19A
Procedure: as §2

full-length VicK protein = molecular target: T1, full-length VicK protein (Streptococcus pneumoniae, UniProt Q8DPL8); assay: Inhibition assay for ATPase activity of VicK (Kinase-Glo Luminescent Kinase Assay); format: biochemical; conditions: 6 μg VicK, 5 μM ATP, read-out: IC50 (inhibition of VicK ATPase activity / autophosphorylation) (converted)
T1 construct: 6 His; made in house
T1 sequence (Q8DPL8 whole entry): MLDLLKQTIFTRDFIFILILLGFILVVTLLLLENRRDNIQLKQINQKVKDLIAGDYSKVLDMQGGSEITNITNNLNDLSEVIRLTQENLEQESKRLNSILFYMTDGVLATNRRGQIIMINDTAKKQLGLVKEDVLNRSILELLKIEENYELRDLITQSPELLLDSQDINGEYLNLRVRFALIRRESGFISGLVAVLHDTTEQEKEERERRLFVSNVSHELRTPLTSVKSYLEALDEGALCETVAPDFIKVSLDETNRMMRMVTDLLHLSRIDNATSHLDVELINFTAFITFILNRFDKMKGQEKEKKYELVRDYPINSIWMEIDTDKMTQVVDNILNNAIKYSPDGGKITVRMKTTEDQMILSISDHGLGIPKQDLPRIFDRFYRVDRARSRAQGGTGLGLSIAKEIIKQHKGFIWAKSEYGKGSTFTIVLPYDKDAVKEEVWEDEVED
Procedure: The inhibitory activities of the Chinese medicine monomers for the ATPase activity of the full-length VicK protein were evaluated using the Kinase-Glo™Luminescent Kinase Assay (Promega, Madison, USA). Briefly, 6 μg VicK protein was pre-incubated with a series of dilution of compounds in the reaction buffer at 37°C for 30 min. 5 μM ATP was added and incubated for another 30 min. Kinase-Glo™Reagent was also added to detect the remaining ATP recorded from luminescence measurements (RLU). In parallel, the VicK protein with no addition of compounds was used as a control, and the mixture with compounds excluding the VicK protein served as another control. The rate of protein phosphorylation (Rp) inhibition by the compounds was calculated from Equation (1).
(1) Rp=1−RLU(compound+ATP+Reagent) −RLU(compound+ATP+vick+Reagent)/RLU(ATP +Reagent)−RLU(ATP+vick+Reagent)×100%
The half maximal inhibitory concentration (IC50), which is the concentration of inhibition of 50% VicK protein autophosphorylation, was determined by GraphPad Prism 5 (Qin et al., [2006]).

S. pyogenes = assay: MIC against S. pyogenes; format: cell-based; conditions: Streptococcus pyogenes
Procedure: as §1

S. pneumoniae NCTC7466 [6] = assay: MIC against S. pneumoniae NCTC7466 (D39); format: cell-based; conditions: Streptococcus pneumoniae, NCTC7466
Procedure: as §1

[7] = in combination with Erythromycin
[8] = in combination with Tetracycline

In the case of `CC(C)=CCCC1=CC(=O)c2c(O)ccc(O)c2C1=O` [Compound 3, Deoxyshikonin], the MIC (S. mitis) is reported as 125 µg/mL, the “Mean log CFU at site of infection” value ([1]; Lung, 24 h, control 2.82) is reported as 1 (<0.0001)^b log CFU and the “Mean log CFU at site of infection” value ([1]; Lung, 48 h, control 7.57) is reported as 1 (0.001)^b log CFU. For the same compound, the “Mean log CFU at site of infection” value ([1]; Lung, 72 h, control 4.95) was 2.5 (<0.0001)^b log CFU, the “Mean log CFU at site of infection” value ([1]; NW (nasal wash), 24 h, i.p. three times a day for 3 days, control 6.72) was 3.30 log CFU and the “Mean log CFU at site of infection” value ([1]; NW, 48 h, control 6.27) was 4.6 (0.0002)^b log CFU. For the same compound, the “Mean log CFU at site of infection” value ([1]; NW, 72 h, control 7.09) was 5.52 (<0.0001)^b log CFU, the “reduction in 19F bacterial numbers” value ([1]; at 24 h) was “one-log reduction” and the MIC ([2]; read-out: MIC, Alone, strain 652336) was 136 µg/mL. For the same compound, the MIC ([2]; read-out: MIC, Alone, strain 736007) was 136 µg/mL, the MIC ([2]; read-out: MIC, Alone, strain 8364981) was 136 µg/mL and the MIC ([2]; read-out: MIC, Alone, strain 12092624) was 136 µg/mL. For the same compound, the “Mean survival of mice ± SEM” value (S. pneumoniae NCTC7466 [3]) was 50.6 ± 4.1 h, the “MIC of pneumococcal strains, Range” value (pneumococcal strains; Penicillin intermediate (n = 12)) was 34 to 196 µg/mL and the “MIC of pneumococcal strains, MIC50” value (pneumococcal strains; Penicillin resistant (n = 15)) was 17 µg/mL. The “MIC of pneumococcal strains, Range” value (pneumococcal strains; Penicillin resistant (n = 15)) was 8.5 to 136 µg/mL, the “MIC of pneumococcal strains, Range” value (pneumococcal strains; Penicillin susceptible (n = 7)) was 17 to 34 µg/mL and the MIC50 (pneumococcal strains; read-out: MIC of pneumococcal strains, MIC50, Penicillin intermediate (n = 12)) was 68 µg/mL. The MIC50 (pneumococcal strains; read-out: MIC of pneumococcal strains, MIC50, Penicillin resistant (n = 15)) was 17 µg/mL, the MIC50 (pneumococcal strains; read-out: MIC of pneumococcal strains, MIC50, Penicillin susceptible (n = 7)) was 17 µg/mL and the MIC90 (pneumococcal strains; read-out: MIC of pneumococcal strains, MIC90, Penicillin intermediate (n = 12)) was 196 µg/mL. The MIC90 (pneumococcal strains; read-out: MIC of pneumococcal strains, MIC90, Penicillin resistant (n = 15)) was 68 µg/mL, the MIC90 (pneumococcal strains; read-out: MIC of pneumococcal strains, MIC90, Penicillin susceptible (n = 7)) was 34 µg/mL and the “MIC, Alone” value (S. aureus; MRSA8548991, agent alone) was 34 µg/mL. The MIC (S. aureus; ATCC29213, read-out: MIC, Alone) was 34 µg/mL, the MIC (S. aureus; MRSA, read-out: MIC, Alone) was 68 µg/mL and the MIC (S. aureus; read-out: MIC, Alone) was 34 µg/mL. For the same compound, the “reduction of MIC in combination with PEN” value (S. aureus; four strains of MRSA) was 2 fold, the MIC [4] was 34 to 68 µg/mL and the FICI (S. pneumoniae; [7]) was 0.37. For the same compound, the Outcome (S. pneumoniae; [7]) was “Synergy (=0.5, synergy)”, the FICI (S. pneumoniae; [8]) was 0.125 and the Outcome (S. pneumoniae; [8]) was “Synergy (=0.5, synergy)”. For the same compound, the “Mean log CFU at site of infection” value ([5]; Lung, 24 h, control 4.85) was 1 log CFU, the “Mean log CFU at site of infection” value ([5]; Lung, 48 h, control 6.12) was 2.39 (0.0001)^b log CFU and the “Mean log CFU at site of infection” value ([5]; Lung, 72 h, control 6.29) was 1.05 (0.04)^b log CFU. For the same compound, the “Mean log CFU at site of infection” value ([5]; NW (nasal wash), 24 h, i.p. three times a day for 3 days, control 7.29) was 6.08 (0.026)^b log CFU, the “Mean log CFU at site of infection” value ([5]; NW, 48 h, control 5.97) was 2.76 (0.005)^b log CFU and the “Mean log CFU at site of infection” value ([5]; NW, 72 h, control 6.01) was 3 (0.011)^b log CFU. The “reduction of 19A bacterial numbers” value ([5]; at 24 h) was “two-log reduction”, the IC50 (full-length VicK protein) was 15.4 µM and the IC50 (full-length VicK protein; value in parentheses) was 15.4 µM. For the same compound, the MIC (S. pyogenes) was 8.5 µg/mL and the MIC (S. pneumoniae NCTC7466 [6]) was 17 µg/mL and 62 µM.
